Where two headings read alike, the source gives them in different places.
Columns and labels:
[1] = tested on: MDA-MB-231 cells; experiment: MTT assay for cell killing, breast cancer cell line MDA-MB-231; assay type: cell-based; conditions: for IC50: Homo sapiens, MDA-MB-231, MTT, 72h
Description: The cytotoxicity of the peptides on the prostate cancer derived cell lines DU145, LnCaP, and PC3, and the breast cancer derived cell line MDA-MB-231 was tested as previously described (Morgan et al. 2014 ibid), using the MTT (3-[4,5-dimethylthiazol-2-yl]-2,5-diphenyltetrazolium bromide) assay for metabolic activity. 7000-16000 cells, depending on the cell line, were seeded onto 96-well cell plate and treated with 5, 10, 20, 40 and 80 μM of each compound for 72h, DMSO alone (negative control) for 72 hr, or HTL001 ([…]; International patent application published as WO2017068353; positive control) for 2 h. After treatment, MTT at a final concentration of 0.5 mg/ml was added. Upon 4h incubation the formed formazan crystals were dissolved in DMSO and the optical density (OD) measured at 540 nm with a spectrofluorimeter. Percentage of cell survival was calculated as a ratio of the mean OD value of treated vs. untreated cells. Experiments were repeated 3 times and statistical analysis performed using Student's t-test. All cell lines were cultured in RPMI media with added 10% FBS, 1% sodium pyruvate and 1% L-Glutamine. They were all cultured in an incubator at 37° C., 5% CO2. The assay was repeated 3 times and the results are given as the mean IC50 for cell killing±standard deviation.
The molecules were tested for their ability to induce cell death using the breast cancer cell line MDA-MB-231, with the HOX/PBX interfering peptide HTL001 (WYKWMKKAARRRRRRRRR; International patent application published as WO2017068353) as a positive control and DMSO as a negative control. Percentage of cell survival was evaluated with the MTT assay after treatment with different concentrations ([…], 10, 20, 40 and 80 μM) of each compound for 72h. The IC50 was evaluated as the concentration of the compound that reduces % of cell survival by half.
MDA-MB-231 cells were treated with different concentrations of Example 2 dissolved in either DMSO or PEG/Tris HCl and MTT assay performed. Data are means±SEM of four independent experiments.

[2] = tested on: cFOS; experiment: cFOS expression in MDA-MB-231 cells (qRT-PCR); assay type: cell-based; conditions: for fold induction at 33 µM: Homo sapiens, qRT-PCR; for fold induction at 33 µM / cFos expression compared to untreated MDA-MB-231 cells: MDA-MB-231 cells, 2h, 33 μM
Description: MDA-MB-231 cells were seeded in 25 cm^2 plates and treated for 2h with 33 μM of each compound at 80% confluence. RNA was isolated using RNeasy Mini Kit-QIAGEN according to manufacturer's instructions and quantified with NanoDrop ND-1000. cDNA was generated from 1 μg of total RNA using High Capacity cDNA Reverse Transcription Kit in a 25 μl final reaction volume according to the manufacturer protocol. The expression of cFOS was quantified by qRT-PCR. Real-time PCR reactions were performed using 1:10 dilution (5 μl/well) of each cDNA added to TaqMan Universal PCR Master Mix and TaqMan Gene Expression Assay Hs00170630_m1 FOS. Amplification of glyceraldehyde 3-phosphate dehydrogenase (GAPDH) probe was performed as endogenous control. The comparative Ct method (ΔΔCt algorithm) was used for analysis. Independent experiments were performed in triplicates and repeated three times. Statistical analysis was performed with Student's t-test.
MDA MB 231 cells were treated for 4h with 4×IC50 Example 2 in PEG/Tris HCl. RNA was isolated and RT-PCR performed to detect expression of cFOS. Data are means±SEM of four independent experiments. Significance to PEG/Tris HCl: **p<0.01 (Ttest).

[3] = tested on: MDA-MB-231 tumour; experiment: In vivo study, MDA-MB-231 tumour in Balb-c nude mice; conditions: 20 mg/Kg, IP, day 0, 3, 6, 9, 10 & 13
Description: MDA-MB-231 cells were injected subcutaneously into female or male Balb-c nude mice aged 6 to 12 weeks (Harlan, UK). When the tumour size reached 100 mm^3 mice were injected intratumouraly with Example 2 at the intervals shown on the graph. Mice were sacrificed when the tumour size reached 1000 mm^3 or at the end of the experiment (14 days).
Treatment of MDA-MB-231 tumour with Example 2 (ICT9119): Group 1—Untreated controls Group 2—10% DMSO/Oil solvent control, IP, day 0, 3, 6, 9, 10 & 13 Group 3—Example 2, 20 mg/Kg, IP, day 0, 3, 6, 9, 10 & 13

[4] = Solubility studies; assay type: physicochemical
Excerpt: Example 2 was solubilised in PEG400 and propylene glycol (PG).

[5] = tested on: DUSP1; experiment: DUSP1 expression in DU145 prostate cancer cells (RT-PCR); assay type: cell-based; conditions: 4h, 120 μM in PEG/Tris HCl
Description: (§1) DU145 cells were treated for 4h with 120 μM Example 2 in PEG/Tris HCl. RNA was isolated and RT-PCR performed to detect expression of cFOS and DUSP1. Data are means±SEM of three independent experiments. *p<0.05 (Ttest).

[6] = tested on: cFOS; experiment: cFOS expression in DU145 prostate cancer cells (RT-PCR); assay type: cell-based; conditions: 4h, 120 μM in PEG/Tris HCl
Description: as §1

[7] = tested on: DUSP1; experiment: DUSP1 expression in PC3 prostate cancer cells (RT-PCR); assay type: cell-based; conditions: 4h, 120 μM in PEG/Tris HCl
Description: (§2) PC3 cells were treated for 4h with 120 μM Example 2 in PEG/Tris HCl. RNA was isolated and RT-PCR performed to detect expression of cFOS and DUSP1. Data are means±SEM of three independent experiments. Significance to PEG/Tris HCl: **p<0.01, ***p<0.001 (Ttest).

[8] = tested on: cFOS; experiment: cFOS expression in PC3 prostate cancer cells (RT-PCR); assay type: cell-based; conditions: 4h, 120 μM in PEG/Tris HCl
Description: as §2

[9] = target: T1, HOXB4/PBX2 dimers (Homo sapiens, UniProt P40425); experiment: Cell based ELISA assay for HOX/PBX binding (HOXB4/PBX2 dimer assay); conditions: MDA-MB-231 cells treated with 10 μM for 4 hours; compared to negative control (DMSO); read-out: % inhibition of HOXB4/PBX2 dimer formation
T1 construct: endogenous in cells; host or cells: MDA-MB-231
T1 sequence (P40425 1-430): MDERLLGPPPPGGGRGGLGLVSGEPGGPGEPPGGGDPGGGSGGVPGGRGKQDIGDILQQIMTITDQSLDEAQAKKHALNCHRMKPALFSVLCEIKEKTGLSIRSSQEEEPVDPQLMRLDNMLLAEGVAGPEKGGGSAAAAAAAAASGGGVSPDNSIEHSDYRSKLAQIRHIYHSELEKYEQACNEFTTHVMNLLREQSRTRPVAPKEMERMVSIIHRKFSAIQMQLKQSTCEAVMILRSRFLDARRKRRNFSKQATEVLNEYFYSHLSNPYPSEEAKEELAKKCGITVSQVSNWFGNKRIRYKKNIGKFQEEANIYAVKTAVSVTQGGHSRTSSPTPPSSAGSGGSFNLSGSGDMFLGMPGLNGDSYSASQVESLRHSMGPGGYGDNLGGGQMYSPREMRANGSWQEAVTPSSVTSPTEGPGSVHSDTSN
Description: In order to directly assess the ability of each compound to disrupt HOX/PBX binding a cell-based assay system was developed that could allow the formation of HOX/PBX/DNA dimers. Cultured MDA-MB-231 cells were treated with 10 μM of each compound for 4 hours and then used to generate a cell lysate using a standard preparation method as described below. HOXB4/PBX2 dimers were then measured using an ELISA-based system as detailed in the table below. The values from this assay are expressed as % inhibition of dimer formation compared to a negative control (DMSO).
1. Collect approximately 5.0×10^7 cells by low-speed centrifugation at RT for 5 min. Carefully remove culture medium. 2. Wash the cellular debris (pellet) with PBS at RT, and collect by low-speed centrifugation. Carefully remove supernatant (total protein). 3. Add 1.0 ml of pre-cold RIPA buffer (or other appropriate buffer) with freshly added (Protease Inhibitors) and/or (Phosphatase Inhibitors). Gently resuspend cells in RIPA buffer with a pipet and incubate on ice for 30 min. 4. Further disrupt and homogenize cells by passing through a 21-gauge needle, dounce homogenization or sonication, taking care not to raise the temperature of the lysate. (Optional: Add 10 μl of 10 mg/ml PMSF stock) Incubate 30 min on ice. 5. Transfer to microcentrifuge tube(s) and centrifuge at 10,000×g for 10 min at 4° C. […]

[10] = no induced cell death observed at 80 μM, read-out: IC50 values for the urea analogue reference examples
[11] = average of experiments, read-out: IC50 Average
[12] = single experiment 1, read-out: IC50 Exp1
[13] = single experiment 2, read-out: IC50 Exp2
[14] = MDA-MB-231 tumour in Balb-c nude mice
[15] = single experiment 3, read-out: IC50 Exp3
[16] = single experiment 4, read-out: IC50 Exp4

With `C#CCNC(=O)NCC(c1cccs1)c1c[nH]c2ccccc12` (stereo not shown) [A, reference compound] the IC50 [1, 10] was greater than 80 µM.
In the case of `O=C(NCC1CC1)NCC(c1cccs1)c1c[nH]c2ccccc12` (stereo not shown) [B, reference compound], the IC50 [1, 10] is reported as greater than 80 µM.
Molecule `CCCNC(=O)NCC(c1ccsc1)c1c[nH]c2ccccc12` (stereo not shown) [C, reference compound] has an IC50 [1, 10] greater than 80 µM.
For `C=C(C)CNC(=O)NCC(c1ccsc1)c1c[nH]c2ccccc12` (stereo not shown) [D, reference compound], the IC50 [1, 10] was greater than 80 µM.
With `CCCCCCCNC(=S)NCC(c1cccs1)c1c[nH]c2ccccc12` (stereo not shown) [Example 1, 1-heptyl-3-[2-(1H-indol-3-yl)-2-(2-thienyl)ethyl]thiourea] the fold induction at 33 µM [2] was 32.5, the “cFos expression compared to untreated MDA-MB-231 cells” value [2] was “significant increase” and the IC50 [1, 11] was 33 µM. For the same molecule, the IC50 [1, 12] was 21.8 µM and the IC50 [1, 13] was 44.3 µM.
In the case of `CCCCCCNC(=S)NCC(c1cccs1)c1c[nH]c2ccccc12` (stereo not shown) [Example 2, 1-hexyl-3-[2-(1H-indol-3-yl)-2-(2-thienyl)ethyl]thiourea], the “Maximum % weight loss” value ([3]; Balb-c nude mice) is reported as 0%, the “Growth delay” value [3, 14] is reported as 4.2 days and the “Median time RTV 2” value [3, 14] is reported as 8.9 days. The “cFOS expression in MDA-MB-231 cells” value ([2]; 4h, 4×IC50, in PEG/Tris HCl, p<0.01 to PEG/Tris HCl) was “significantly increased”, the “behaviour on dilution with water” value ([4]; diluted with water with polysorbate 80 (Tween 80) at a final concentration of 5%) was “remained in solution” and the “concentration achieved in propylene glycol (PG)” value ([4]; solubilised in PG) was “up to 5 mg/mL”. For the same molecule, the IC50 [1, 11] was 37.9 µM, the IC50 [1, 12] was 36.7 µM and the IC50 [1, 13] was 39 µM. For the same molecule, the “MDA-MB-231 cell survival, in PEG/Tris HCl in comparison with in DMSO” value ([1]; MTT assay, four independent experiments, p<0.05) was “significantly decreased”, the “DUSP1 expression in DU145 cells” value [5] was “significantly increased” and the “cFOS expression in DU145 cells” value [6] was “significantly increased”. The “DUSP1 expression in PC3 cells” value [7] was “significantly increased” and the “cFOS expression in PC3 cells” value [8] was “significantly increased”.
With `CCCCCNC(=S)NCC(c1cccs1)c1c[nH]c2ccccc12` (stereo not shown) [Example 3, 1-pentyl-3-[2-(1H-indol-3-yl)-2-(2-thienyl)ethyl]thiourea] the IC50 [1, 11] was 35.3 µM, the IC50 [1, 12] was 21.3 µM and the IC50 [1, 13] was 49.2 µM.
For `S=C(NCC1CCCCC1)NCC(c1cccs1)c1c[nH]c2ccccc12` (stereo not shown) [Example 4, 1-cyclohexylmethyl-3-[2-(1H-indol-3-yl)-2-(2-thienyl)ethyl]thiourea], the IC50 [1, 11] was 53 µM, the IC50 [1, 12] was 65.8 µM and the IC50 [1, 13] was 40.3 µM.
With `C=C(C)CNC(=S)NCC(c1cccs1)c1c[nH]c2ccccc12` (stereo not shown) [Example 5] the fold induction at 33 µM [2] was 37.4, the “cFos expression compared to untreated MDA-MB-231 cells” value [2] was “significant increase” and the inhibition at 10 µM [9] was 39.2%. It also gave an IC50 [1, 11] of 45.5 µM, an IC50 [1, 12] of 47.9 µM and an IC50 [1, 13] of 45 µM. The IC50 [1, 15] was 43.7 µM.
Work on `CNC(=S)NCC(c1cccs1)c1c[nH]c2ccccc12` (stereo not shown) [Example 6] yielded an IC50 [1, 11] of 61.6 µM, an IC50 [1, 12] of 68 µM and an IC50 [1, 13] of 48 µM. For the same molecule, the IC50 [1, 15] was 68.9 µM.
In the case of `CCNC(=S)NCC(c1cccs1)c1c[nH]c2ccccc12` (stereo not shown) [Example 7], the IC50 [1, 11] is reported as 60.9 µM, the IC50 [1, 12] is reported as 51.8 µM and the IC50 [1, 13] is reported as 65.8 µM. The IC50 [1, 15] was 65 µM.
In the case of `CCCNC(=S)NCC(c1cccs1)c1c[nH]c2ccccc12` (stereo not shown) [Example 8], the IC50 [1, 11] is reported as 51.9 µM, the IC50 [1, 12] is reported as 42.7 µM and the IC50 [1, 13] is reported as 48.6 µM. The IC50 [1, 15] was 56.1 µM and the IC50 [1, 16] was 59.9 µM.
Work on `CCCCNC(=S)NCC(c1cccs1)c1c[nH]c2ccccc12` (stereo not shown) [Example 9] yielded an IC50 [1, 11] of 41.2 µM, an IC50 [1, 12] of 40.9 µM and an IC50 [1, 13] of 37.3 µM. For the same molecule, the IC50 [1, 15] was 29.8 µM, the IC50 [1, 16] was 41 µM and the IC50 ([1]; single experiment 5, read-out: IC50 Exp5) was 57.2 µM.
